Measured values reported in patent US20220339122A1, “METHODS FOR THE TREATMENT OF DISEASES ASSOCIATED WITH DYSREGULATED ACTIVATION AND RECRUITMENT OF NEUTROPHILS” (Chang Gung University, priority 2021, published 2022).

Legend:
human neutrophils [1] = assay: Cytotoxicity assessed using LDH release; assay type: cell-based
Method: FIG. 1 Bletinib suppressed superoxide anion production in stimulated human neutrophils. Neutrophils (6×10^5 cells/mL) were incubated with 0.1% DMSO or […] bletinib for 5 min before activation with stimuli. Superoxide anion production was induced by (A) fMLF, (B) MMK-1, (C) NaF, or (D) PMA and then measured using ferricytochrome c reduction method. (E) Cytotoxicity was assessed using LDH release. (F) Superoxide scavenging capacity of bletinib was assessed in a xanthine/xanthine oxidase cell-free system. WST-1 reduction was measured through spectrophotometry at 450 nm, with 20 U/mL superoxide dismutase as the positive control.

human neutrophils [2] = assay: Intracellular superoxide/ROS production, DHR123 flow cytometry; assay type: cell-based; conditions: 0.1-3 μM bletinib; 0.1 μM fMLF; dose-dependent
Method: Human neutrophils (2.5×10^6 cells/mL) were labelled using 2 μM dihydrorhodamine 123 (DHR123) at 37° C. for 10 min and then incubated with DMSO or bletinib for 5 min and then stimulated with 0.1 μM fMLF/0.5 μg/mL CB for 15 min. The fluorescence intensity was detected through flow cytometry to evaluate intracellular superoxide anion production of human neutrophils.

p-SFKs Y416 = assay: Immunoblotting of neutrophil lysates, SFKs phosphorylation; assay type: cell-based, human; conditions: 10 μM bletinib; 0.1 μM fMLF
Method: (§1) Neutrophils incubated with bletinib or DMSO at 37° C. for 5 min were stimulated with 0.1 μM fMLF for 30 s. The proteins were separated from neutrophil lysates through electrophoresis (12% sodium dodecyl sulphate-polyacrylamide gel electrophoresis) and then transferred to nitrocellulose membranes. The target proteins were identified through immunoblotting with specific antibodies against p38, p-p38, Akt, p-Akt S473, ERK, p-ERK, INK, p-JNK, Src, p-SFKs Y416, p-Src Y416, Lyn, p-Lyn (Y396), Fgr, p-Fgr (Y412), Hck, p-Hck (Y410), Btk, p-Btk Y223, Vav, and p-Vav (Y174) as well as with HRP-conjugated secondary anti-rabbit antibody (Cell Signaling Technology). The signal intensity was detected and quantified using the UVP BioSpectrum Imaging System (Analytik Jena, USA).

Hck (Y410) = assay: Immunoblotting of neutrophil lysates, Hck phosphorylation; assay type: cell-based, human; conditions: 0.1 μM fMLF-stimulated neutrophils
Method: as §1

Akt (S473) = assay: Immunoblotting of neutrophil lysates, Akt phosphorylation; assay type: cell-based, human; conditions: 10 μM bletinib; 0.1 μM fMLF
Method: as §1

Src = Src (Homo sapiens, UniProt P12931); assay: Cell-free ADP-Glo kinase assay, Src; assay type: biochemical; conditions: 1-10 μM bletinib or 0.1-3 μM PP2; 125 μM ATP; concentration-dependent
Method: (§2) The kinase activity of SFKs was assessed using an ADP-Glo kinase assay kit (Promega, Fitchburg, USA) according to manufacturer instructions. […] The ADP-Glo reagent was used to end the kinase reaction and remove the remnant ATP; next, the kinase, which converted ADP to ATP, detection reagent was added and incubated for 30 min. Luciferin/luciferase luminescence was determined on an Infinite 200 Pro (Tecan, Switzerland).

Lyn = Lyn (Homo sapiens, UniProt P07948); assay: Cell-free ADP-Glo kinase assay, Lyn; assay type: biochemical; conditions: 1-10 μM bletinib or 0.1-3 μM PP2; 125 μM ATP; concentration-dependent
Method: as §2

human neutrophils [3] = assay: Neutrophil adhesion to bEnd.3 cells; assay type: cell-based; conditions: 1-10 μM bletinib; fMLF/CB
Method: Human neutrophils (10^6 cells/mL) were labelled with Hoechst 33342 and then incubated with DMSO or Bletinib for 5 min. After centrifugation, the cells were resuspended and activated with 0.1 μM fMLF/1 μg/mL CB for 10 min before incubation with bEnd.3 cells at 37° C. for 30 min. After they were washed with HBSS, the cells were fixed with 4% paraformaldehyde and the neutrophils that adhered to the bEnd.3 cells were detected and quantified on a motorised inverted microscope (Olympus, Japan).
Adhesion and transmigration are both crucial steps in the neutrophil recruitment cascade during inflammation. In this example, to examine whether bletinib would interfere the adhesion and transmigration process, human neutrophils (10^6 cells/mL) were first labeled with Hoechst 33342, then pre-treated with bletinib (1-10 μM) and followed by stimulation with fMLF, then incubated with bEnd.3 cells in 37° C. for 30 min. […] Furthermore, IL-8 served as a chemotactic factor for the attraction of neutrophils.

human neutrophils [4] = assay: Neutrophil migration, microchemotaxis chamber; assay type: cell-based
Method: A microchemotaxis chamber with 3-μm filters (Millipore) was used to evaluate chemotactic migration of neutrophils. Neutrophils (5×10^6 cells/mL) treated with bletinib or DMSO for 5 min were placed in the top chamber, and 0.1 μM fMLF was added into the bottom chamber. The number of neutrophils that migrated from the top to the bottom chamber after incubation at 5% CO2 for 1 h was counted on a MoxiZ automatic cell counter (ORFLO).

Sequence of Src (P12931 whole entry): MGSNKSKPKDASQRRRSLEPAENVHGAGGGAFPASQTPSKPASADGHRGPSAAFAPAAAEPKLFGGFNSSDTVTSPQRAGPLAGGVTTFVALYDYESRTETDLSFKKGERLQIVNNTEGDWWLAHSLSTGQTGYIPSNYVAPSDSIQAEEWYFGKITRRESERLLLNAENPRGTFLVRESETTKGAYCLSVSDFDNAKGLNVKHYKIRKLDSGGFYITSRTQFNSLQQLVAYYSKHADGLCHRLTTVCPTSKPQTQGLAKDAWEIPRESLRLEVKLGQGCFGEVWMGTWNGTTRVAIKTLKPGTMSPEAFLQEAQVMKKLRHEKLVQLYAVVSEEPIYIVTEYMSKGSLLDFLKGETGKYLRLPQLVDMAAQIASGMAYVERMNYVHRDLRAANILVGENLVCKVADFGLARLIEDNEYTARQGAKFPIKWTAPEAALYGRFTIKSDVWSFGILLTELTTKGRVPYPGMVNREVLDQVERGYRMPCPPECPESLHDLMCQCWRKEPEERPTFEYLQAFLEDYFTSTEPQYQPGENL
Sequence of Lyn (P07948 whole entry): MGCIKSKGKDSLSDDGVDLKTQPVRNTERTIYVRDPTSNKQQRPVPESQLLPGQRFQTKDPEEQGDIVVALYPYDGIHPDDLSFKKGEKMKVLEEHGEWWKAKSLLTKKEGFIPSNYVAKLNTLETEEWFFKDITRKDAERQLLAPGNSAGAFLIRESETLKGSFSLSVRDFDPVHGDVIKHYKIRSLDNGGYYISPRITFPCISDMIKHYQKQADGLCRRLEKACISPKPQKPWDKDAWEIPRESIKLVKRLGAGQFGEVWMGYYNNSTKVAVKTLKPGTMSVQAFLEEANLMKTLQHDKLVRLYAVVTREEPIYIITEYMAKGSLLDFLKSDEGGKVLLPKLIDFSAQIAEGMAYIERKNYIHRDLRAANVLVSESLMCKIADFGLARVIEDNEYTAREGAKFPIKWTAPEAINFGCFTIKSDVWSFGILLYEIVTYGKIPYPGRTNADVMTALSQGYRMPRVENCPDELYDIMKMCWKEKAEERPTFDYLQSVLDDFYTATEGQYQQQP

Compound: COc1cc(O)cc(CCc2c(Cc3ccc(O)cc3)ccc(O)c2Cc2ccc(O)cc2)c1 [bletinib, 3,3′-dihydroxy-2′,6′-bis(p-hydroxybenzyl)-5-methoxybibenzyl]
- cytotoxicity (LDH release) (human neutrophils [1]): did not exhibit cytotoxicity
- intracellular ROS production, flow cytometry (DHR123 MFI) (human neutrophils [2]): significantly suppressed
- phosphorylation of SFKs (p-SFKs Y416): significantly inhibited
- phosphorylation of Hck (Y410) (Hck (Y410)): significantly inhibited
- phosphorylation of Akt (Akt (S473)): but not
- kinase activity of Src (Src): inhibited
- kinase activity of Lyn (Lyn): inhibited
- adhesion function of fMLF-activated neutrophils (adhered on bEnd.3 cells) (human neutrophils [3]): inhibited
- fMLF-induced transwell migration of neutrophils (human neutrophils [4]; 1-10 μM bletinib, 0.1 μM fMLF): significantly reduced
- IL-8-induced neutrophil migration (human neutrophils [4]; IL-8, data not shown): inhibited
